Laboratory results published in US20190307783A1, “USE OF ANTIVIRALS TO INHIBIT PROTOZOAN VIRUSES” (priority 2016, published 2019).
Read-outs that look alike come from different tables or passages of the source.

What was measured:
L. guyanensis (LgyLRV1+) = experiment: Drug-inhibition test: growth of LgyLRV1+ parasites; assay type: cell-based, Leishmania guyanensis; settings: for Effect on L. guyanensis growth, in words: screen at 100 μM or maximum concentration permitted by solubility, 2 days; for Population doubling time: untreated ˜7.7 hours
Method: These compounds were examined for their ability to inhibit the growth of LgyLRV1^+ and virus levels by LRV1 capsid flow cytometry.
Most studies were performed using luciferase-expressing transfectants of L. guyanensis (MHOM/BR/78/M4147) described previously [LRV1^+ LgyM4147/SSU:IR2SAT-LUC(b)c3 and LRV^−LgyM4147/pX63HYG/SSU:IR2SAT-LUC(b)c4] (54); these lines are termed LgyLRV1^+ and LgyLRV1^−, respectively. Two strains of LRV1^+L. braziliensis were examined: LEM2780 (MHOM/BO/90/CS) and LEM3874 (MHOM/BO/99/IMT252 no. 3) (12). Parasites were grown in Schneider's media (Sigma Aldrich, St. Louis, Mo., USA) prepared according to the supplier's instructions with pH adjusted to 6.5 and supplemented with 0.76 mM hemin, 2 μg/mL biopterin, 50 U/mL penicillin, 50 μg/mL streptomycin, and 10% (vol/vol) heat-inactivated FBS. Cell concentrations were determined using a Coulter Counter ([…], Indianapolis, Ind., USA).
(§1) Parasites were inoculated at 2×10^5 cells/mL into Schneider's media lacking supplemental adenine.

[1] = system: LRV1 (LgyLRV1 capsid levels); experiment: organism not typed; settings: for Effect on LRV1 (capsid) levels, in words: screen at 100 μM or maximum concentration permitted by solubility; for Inhibition of LRV1 levels, in words: concentrations up to 100 μM, data not shown
Source text: Because LRV1 (like most Totiviridae) is not shed from the cell (33, 34), we developed a flow cytometric assay to measure intracellular LRV1 capsid levels on a per cell basis. To detect LRV1 we used binding to a rabbit anti-LgyLRV1 capsid antiserum (35) followed by detection with Alexa Fluor488-conjugated goat anti-rabbit IgG.
as §1
For capsid flow cytometry, 10^7 cells were fixed at room temperature using 2% (wt/vol) paraformaldehyde (Thermo Fisher Scientific) in PBS for 2 minutes. They were then incubated in blocking buffer [10% (vol/vol) normal goat serum (Vector Laboratories, Burlingame, Calif., USA) and 0.2% TRITON X-100 in PBS] for 30 minutes at room temperature. Anti-LgyLRV1 capsid antibody (35) was added (1:20,000 dilution) and incubated at room temperature for 1 hour. After two washes with PBS, cells were resuspended in 200 μL PBS with Alexa Fluor488-labeled goat anti-rabbit IgG (Alexafluor, Invitrogen; 1:1,000; or Thermo Fisher Scientific; 1:2,000 dilution), and incubated 1 hour at room temperature. After two additional washes with PBS, cells were subjected to flow cytometry, gating for single cells using forward and side scatter and the data analyzed using […] software (BD Bioscience, San Jose, Calif., USA).

[2] = LgyLRV1+, tested at 100 μM, growth after 2 days
[3] = LgyLRV1+, tested at 100 μM, 2 days
[4] = Leishmania guyanensis, 48 h, LgyLRV1+, tested at 100 μM, growth after 2 days, read-out: Percent control (density)
[5] = 48 h, read-out: Percent control (LRV1 capsid)
[6] = LgyLRV1+, tested at 50 μM, growth after 2 days
[7] = LgyLRV1+, tested at 50 μM, 2 days

Compound	Density (cells/mL) (L. guyanensis (LgyLRV1+); [2])	LRV1 capsid (geometric mean FU) [1, 3]	activity at 100 µM (L. guyanensis (LgyLRV1+); [4])	activity at 100 µM [1, 5]	other results
3′-Azido-3′-hydroxyethyl cyclobutyl adenine [Compound E8]	1.86E+7 cells/mL	277 FU			Percent control (density) (L. guyanensis (LgyLRV1+); [2]): 111 Percent control; Percent control (LRV1 capsid) [1, 3]: 104 Percent control
3′-Azido-3′-hydroxyethyl cyclobutyl adenine [Compound E9]	1.58E+7 cells/mL	279 FU			Percent control (density) (L. guyanensis (LgyLRV1+); [2]): 94 Percent control; Percent control (LRV1 capsid) [1, 3]: 105 Percent control
3′-Hydroxyethyl cyclobutyl adenine	1.82E+7 cells/mL	290 FU			Percent control (density) (L. guyanensis (LgyLRV1+); [2]): 108 Percent control; Percent control (LRV1 capsid) [1, 3]: 109 Percent control
Nc1ncnc2c1ncn2[C@@H]1O[C@H](CO)[C@@H](O)[C@H]1F [2′-Fluoro-2′-deoxyadenosine]	2.07E+7 cells/mL	257 FU	123%	97%	
Nc1ccn([C@@H]2O[C@H](CO)[C@@H](O)[C@H]2F)c(=O)n1 [2′-Fluoro-2′-deoxycytidine]	2.21E+7 cells/mL	230 FU	132%	87%	
OC[C@H]1O[C@@H](n2cnc3c(O)ncnc32)[C@H](F)[C@@H]1O [2′-Fluoro-2′-deoxyinosine]	2.41E+7 cells/mL	255 FU	143%	96%	
Nc1nc2c(ncn2[C@@H]2O[C@H](CO)[C@@H](O)[C@H]2F)c(=O)[nH]1 [2′-fluoro-2′-deoxyguanosine, 2′-Fluoro-2′-deoxyguanosine]	1.68E+7 cells/mL	326 FU	100%	123%	
O=c1ccn([C@@H]2O[C@H](CO)[C@@H](O)[C@H]2F)c(=O)[nH]1 [2′-fluoro-2′-deoxyuridine, 2′-Fluoro-2′-deoxyuridine]	2.22E+7 cells/mL	234 FU	132%	88%	
C[C@@]1(O)[C@H](O)[C@@H](CO)O[C@H]1n1cnc2c(=O)[nH]c(N)nc21 [2′C-Methyguanosine, 2′C-Methyl guanosine]	2.25E+7 cells/mL	252 FU			Percent control (density) (L. guyanensis (LgyLRV1+); [2]): 133 Percent control; Effect on L. guyanensis growth, in words (L. guyanensis (LgyLRV1+)): little effect; Percent control (LRV1 capsid) [1, 3]: 95 Percent control; Effect on LRV1 (capsid) levels, in words ([1]; 2 days): little effect
C[C@@]1(O)[C@H](O)[C@@H](CO)O[C@H]1n1ccc(N)nc1=O [2′C-Methylcytidine, 2′C-Methyl cytidine]	1.73E+7 cells/mL	162 FU			Percent control (density) (L. guyanensis (LgyLRV1+); [2]): 103 Percent control; Effect on L. guyanensis growth, in words (L. guyanensis (LgyLRV1+)): little effect; Percent control (LRV1 capsid) [1, 3]: 61 Percent control; Effect on LRV1 (capsid) levels, in words ([1]; 2 days): little effect
C[C@H]1O[C@@H](n2cc(F)c(=O)[nH]c2=O)[C@H](O)[C@@H]1O [5-Fluoro-5′-deoxyuridine]	4.71E+6 cells/mL	234 FU	28%	88%	
O=c1[nH]cc(F)c(=O)[nH]1 [5-Fluorouracil]	9.05E+5 cells/mL		5%	193%	LRV1 capsid (geometric mean FU) [1]: 512 FU
O=c1[nH]cnc2nn[nH]c12 [8-Azahypoxanthine]	1.29E+7 cells/mL	251 FU	77%	95%	
Nc1nc2c(ncn2COCCO)c(=O)[nH]1 [Acyclovir]					activity at 120 µM (L. guyanensis (LgyLRV1+); Leishmania guyanensis, 48 h, LgyLRV1+, tested at 120 μM, growth after 2 days, read-out: Percent control (density)): 51%; Density (cells/mL) (L. guyanensis (LgyLRV1+); LgyLRV1+, tested at 120 μM, growth after 2 days): 8.55E+6 cells/mL; activity at 120 µM [1, 5]: 259%
Oc1ncnc2[nH]ncc12 [Allopurinol]	4.06E+5 cells/mL	90 FU	2%	34%	Inhibition of L. guyanensis growth (L. guyanensis (LgyLRV1+); highest concentration tested, 48-hour propagation, growth rate (FIG. 18A)): 30%; Inhibition of LRV1 capsid levels ([1]; highest concentration tested, 48-hour propagation (FIG. 18A)): 60%
CCCNC(=O)[C@H]1O[C@@H]1C(=O)N[C@H](C(=O)N1CCC[C@H]1C(=O)OC)[C@@H](C)CC [CA-074-Me, CA-074 Me]					Density (cells/mL) (L. guyanensis (LgyLRV1+); [6]): 1.00E+07 cells/mL; Percent control (density) (L. guyanensis (LgyLRV1+); [6]): 60 Percent control; Effect on L. guyanensis growth, in words (L. guyanensis (LgyLRV1+)): no effects; LRV1 capsid (geometric mean FU) [1, 7]: 83 FU; Percent control (LRV1 capsid) [1, 7]: 31 Percent control; Effect on LRV1 (capsid) levels, in words ([1]; 2 days): only minimal effects
C[C@@H]1C[C@@H]([C@H](O)CC2CC(=O)NC(=O)C2)C(=O)[C@@H](C)C1 [CHX, cycloheximide]					Population doubling time (L. guyanensis (LgyLRV1+); L. guyanensis at 10 nM): 11.2 h; Population doubling time (L. guyanensis (LgyLRV1+); L. guyanensis at 100 nM): 44.7 h; LRV1 capsid levels under growth-inhibiting agent, in words ([1]; LgyLRV1+, 48-hour propagation in increasing concentrations): unaffected
CCCC(=O)O[C@H]1CN2CC[C@H](O)[C@@H]2[C@@H](O)[C@@H]1O [Celgosivir, 6-O-butanoyl castanospermine]					activity at 10 µM (L. guyanensis (LgyLRV1+); Leishmania guyanensis, 48 h, LgyLRV1+, tested at 10 μM, growth after 2 days, read-out: Percent control (density)): 65%; Density (cells/mL) (L. guyanensis (LgyLRV1+); LgyLRV1+, tested at 10 μM, growth after 2 days): 1.09E+7 cells/mL; activity at 10 µM [1, 5]: 47%; LRV1 capsid (geometric mean FU) ([1]; LgyLRV1+, tested at 10 μM, 2 days): 124 FU
CN(C)c1ncnc2c1ncn2[C@@H]1O[C@H](CO)[C@@H](O)[C@H]1O [Chembridge 5790592, N,N-dimethyl adenosine]	1.00E+5 cells/mL		1%	108%	LRV1 capsid (geometric mean FU) [1]: 287 FU
Nc1ncnc2c(CN3C[C@H](CO)[C@@H](O)C3)c[nH]c12 [DADMe-Immucillin A]					Inhibition of LRV1 levels, in words [1]: no inhibition of LRV1 levels
O=c1[nH]cnc2c(CN3C[C@H](CO)[C@@H](O)C3)c[nH]c12 [DADMe-Immucillin H]					Inhibition of LRV1 levels, in words [1]: no inhibition of LRV1 levels
Nc1ncnc2c(C3N[C@H](CO)[C@@H](O)[C@H]3O)c[nH]c12 (some centres unmarked) [Immucillin A]					Inhibition of LRV1 levels, in words [1]: no inhibition of LRV1 levels
O=c1[nH]cnc2c([C@@H]3N[C@H](CO)[C@@H](O)[C@H]3O)c[nH]c12 [Immucillin H]					Inhibition of LRV1 levels, in words [1]: no inhibition of LRV1 levels
Nc1ccn([C@@H]2CS[C@H](CO)O2)c(=O)n1 [Lamivudine]	9.20E+6 cells/mL		55%		
Nc1ncnc2nc[nH]c12 [adenine]					Effect of exogenous adenine on LRV1 levels, in words ([1]; adenine up to 400 μM, LgyLRV1+): nor did it alter LRV1 levels
